Measurements published in ChEMBL document CHEMBL1201862, “PubChem BioAssay data set” (2004).
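Method: 48-hour compound exposure of cells in 96-well plates, five concentrations, linear interpolation of endpoints. GI50 is the concentration that inhibits growth by half.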 Calls of active or inactive are those of the source. Rule as the data show it: active = GI50 up to about 1.1 µM and inactive = higher.

Key:
Test in all cases: NCI anticancer screen, dose series, 48 h
[1] = test system: SF-539
[2] = test system: EKVX
[3] = test system: HT-29
[4] = test system: SK-MEL-2
[5] = test system: OVCAR-3
[6] = test system: SF-268
[7] = test system: SW-620
[8] = test system: U-251
[9] = test system: KM12
[10] = test system: OVCAR-5
[11] = test system: SN12C
[12] = test system: UO-31
[13] = test system: HCT-116
[14] = test system: SK-MEL-28
[15] = test system: M14
[16] = test system: MOLT-4
[17] = test system: SK-OV-3
[18] = test system: HCT-15
[19] = test system: K562
[20] = test system: UACC-62

Row | Compound | GI50 [1] | GI50 [2] | GI50 [3] | GI50 [4] | GI50 [5] | GI50 [6] | GI50 [7] | GI50 [8] | GI50 [9] | GI50 [10] | GI50 [11] | GI50 [12] | GI50 [13] | GI50 [14] | GI50 [15] | GI50 [16] | GI50 [17] | GI50 [18] [µM] | GI50 [19] | GI50 [20]
1 | CCOC(=O)CCc1c(C)c2c(OC)cc(OC)cc2oc1=O | > 100 µM (inactive) | 54.7 µM (inactive) | 91 µM (inactive) | > 100 µM (inactive) | > 100 µM (inactive) | 34.4 µM (inactive) | > 100 µM (inactive) | > 100 µM (inactive) | > 100 µM (inactive) | 59.3 µM (inactive) | 79.4 µM (inactive) | 65.9 µM (inactive) | > 100 µM (inactive) | > 100 µM (inactive) | > 100 µM (inactive) |  |  |  |  | 
2 | COC(=O)/C=C/c1ccc2c(c1)CC1(Cc3ccccc3C1)C2 | > 100 µM (inactive) | 23.6 µM (inactive) | 79.4 µM (inactive) | > 100 µM (inactive) | > 100 µM (inactive) |  |  | > 100 µM (inactive) | > 100 µM (inactive) | > 100 µM (inactive) | > 100 µM (inactive) | > 100 µM (inactive) | 0.0478 µM (active) |  | > 100 µM (inactive) | 34.9 µM (inactive) | > 100 µM (inactive) | > 100 | 37.5 µM (inactive) | 15.2 µM (inactive)
3 | Cc1nc2ccc(F)cc2c2c1CCO2 | > 100 µM (inactive) | 39.7 µM (inactive) | 82.6 µM (inactive) | > 100 µM (inactive) |  | > 100 µM (inactive) | > 100 µM (inactive) | 66.2 µM (inactive) | > 100 µM (inactive) | > 100 µM (inactive) | 30.3 µM (inactive) | 92.3 µM (inactive) | 68.1 µM (inactive) | > 100 µM (inactive) | 99.1 µM (inactive) | > 100 µM (inactive) |  | > 100 | 41.5 µM (inactive) | > 100 µM (inactive)
4 | O=C(c1ccccc1)c1c(CC(O)c2ccccc2)n(C(=O)c2ccccc2)c2ccccc12 (stereo not given) | 34.2 µM (inactive) |  | 63.8 µM (inactive) | 36.5 µM (inactive) | 28.8 µM (inactive) | 43.5 µM (inactive) | 50.7 µM (inactive) | 36.1 µM (inactive) | 32 µM (inactive) | > 100 µM (inactive) |  | 19.9 µM (inactive) | 23.1 µM (inactive) | 95.1 µM (inactive) | 33 µM (inactive) | 16.6 µM (inactive) |  | 32.7 | 27.9 µM (inactive) | 46.3 µM (inactive)
5 | O=C(CC1C(=O)Nc2ccccc2[S+]1[O-])Nc1ccccc1 (stereo not given) | 52.7 µM (inactive) | > 100 µM (inactive) | > 100 µM (inactive) | > 100 µM (inactive) | > 100 µM (inactive) | > 100 µM (inactive) | > 100 µM (inactive) | > 100 µM (inactive) | > 100 µM (inactive) | > 100 µM (inactive) | > 100 µM (inactive) | 37.5 µM (inactive) | > 100 µM (inactive) | > 100 µM (inactive) | > 100 µM (inactive) | > 100 µM (inactive) | 26.9 µM (inactive) | > 100 |  | > 100 µM (inactive)
6 | NC(=S)NNC(=O)CCC(=O)Nc1ccc(Cl)cc1Cl | > 100 µM (inactive) |  | > 100 µM (inactive) | 42.9 µM (inactive) | > 100 µM (inactive) | > 100 µM (inactive) | > 100 µM (inactive) | > 100 µM (inactive) | > 100 µM (inactive) | > 100 µM (inactive) | > 100 µM (inactive) | > 100 µM (inactive) | > 100 µM (inactive) | > 100 µM (inactive) | 37.1 µM (inactive) | 55.3 µM (inactive) | > 100 µM (inactive) | 50.4 | 17.7 µM (inactive) | 29.9 µM (inactive)
7 | O=[N+]([O-])C1C2C=CC(C2)[C@H]1c1ccc(Cl)cc1Cl (stereo not given in full) | 35.8 µM (inactive) |  | 21.4 µM (inactive) | 44.9 µM (inactive) |  | 45.1 µM (inactive) | 74.5 µM (inactive) | 35.3 µM (inactive) | 61.2 µM (inactive) | 75.2 µM (inactive) | 67 µM (inactive) | 26.4 µM (inactive) | 37 µM (inactive) | 19.7 µM (inactive) | > 10 µM (inactive) | 26.7 µM (inactive) |  | 43.3 | 35.4 µM (inactive) | 
8 | COc1cc(C/C=C/c2ccccc2)c(OC)cc1O [VIOLASTYRENE] | 17.9 µM (inactive) | 18.1 µM (inactive) | 20.9 µM (inactive) | 23.2 µM (inactive) | 20.1 µM (inactive) | 25.9 µM (inactive) | 20 µM (inactive) | 18.7 µM (inactive) | 17 µM (inactive) | 24.7 µM (inactive) | 19.1 µM (inactive) | 16.8 µM (inactive) | 17.3 µM (inactive) | 18.7 µM (inactive) | 19.2 µM (inactive) | 18.6 µM (inactive) |  | 17.9 | 15.6 µM (inactive) | 16.8 µM (inactive)
